Test results from patent US8648066B2 (Exelixis, Inc., priority 2009, dated 2014).

Target: mTOR/GbL/Raptor (mTORC1) (Homo sapiens, UniProt P42345)
Test: mTOR/GbL/Raptor (mTORC1) ELISA assay
Format: biochemical
Conditions: phosphorylation of 4E-BP1; 0.2 nM mTORC1, 10 μM ATP; read-out: IC50 in this assay (mTORC1 ELISA)
Procedure, shortened: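 ELISA read-out: phospho-4E-BP1 captured on Ni-chelate plates and detected with anti-phospho antibody plus HRP-anti-IgG luminescence. The kinase step ran 120 min at ambient temperature with 0.2 nM human mTORC1, 10 µM ATP, 50 nM His-4E-BP1, 10 mM MnCl2, pH 7.2 HEPES.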

SMILES	IC50 [nM]
CC1(C)CCc2nc(CC#N)nc(N3CCOc4ccc(-c5cnc6sc(N)nc6c5)cc4C3)c2C1 [Example 684, {4-[7-(2-amino[1,3]thiazolo[5,4-b]pyridin-6-yl)-2,3-dihydro-1,4-benzoxazepin-4(5H)-yl]-6,6-dimethyl-5,6,7,8-tetrahydroquinazolin-2-yl}acetonitrile]	≤ 10
Cc1nc2ccc(-c3ccc4c(c3)CN(c3ccnc5cc(F)ccc35)CCO4)cc2[nH]1 [Example 241, 4-(7-fluoroquinolin-4-yl)-7-(2-methyl-1H-benzimidazol-6-yl)-2,3,4,5-tetrahydro-1,4-benzoxazepine]	250 to 1000
CNCCN(C)c1ncnc(N2CCOc3ccc(-c4cnc5nc(C6CC6)[nH]c5c4)cc3C2)c1C [Example 635, N-{6-[7-(2-cyclopropyl-1H-imidazo[4,5-b]pyridin-6-yl)-2,3-dihydro-1,4-benzoxazepin-4(5H)-yl]-5-methylpyrimidin-4-yl}-N,N′-dimethylethane-1,2-diamine]	250 to 1000
Cc1ncnc(N2CCOc3ccc(-c4ccc5[nH]nc(N)c5c4)cc3C2)c1Cc1ccc(F)cc1 [Example 249, 5-(4-{5-[(4-fluorophenyl)methyl]-6-methylpyrimidin-4-yl}-2,3,4,5-tetrahydro-1,4-benzoxazepin-7-yl)-1H-indazol-3-amine]	50 to 250
Cc1nc(N)nc(N2CCOc3ccc(-c4cnc5sc(N)nc5c4)cc3C2)c1Cc1ccc(F)cc1 [Example 692, 6-(4-{2-amino-5-[(4-fluorophenyl)methyl]-6-methylpyrimidin-4-yl}-2,3,4,5-tetrahydro-1,4-benzoxazepin-7-yl)[1,3]thiazolo[5,4-b]pyridin-2-amine]	≤ 10
Cc1ncnc(N2CCOc3ccc(-c4ccc(N)nn4)cc3C2)c1Cc1ccc(F)cc1 [Example 149, 6-(4-{5-[(4-fluorophenyl)methyl]-6-methylpyrimidin-4-yl}-2,3,4,5-tetrahydro-1,4-benzoxazepin-7-yl)pyridazin-3-amine]	50 to 250
COCCOc1ccc2ncnc(N3CCOc4ccc(-c5ccc6nc(C)[nH]c6c5)cc4C3)c2c1 [Example 163, 7-(2-methyl-1H-benzimidazol-6-yl)-4-(6-{[2-(methyloxy)ethyl]oxy}quinazolin-4-yl)-2,3,4,5-tetrahydro-1,4-benzoxazepine]	≥ 2000
CCN1CCc2c(ncnc2N2CCOc3ccc(-c4ccc5nc(C)[nH]c5c4)cc3C2)C1 [Example 211, 4-(7-ethyl-5,6,7,8-tetrahydropyrido[3,4-d]pyrimidin-4-yl)-7-(2-methyl-1H-benzimidazol-6-yl)-2,3,4,5-tetrahydro-1,4-benzoxazepine]	1000 to 2000
Cc1ncnc(N2CCOc3ccc(-c4ccn5nc(N)nc5c4)cc3C2)c1Cc1ccc(F)cc1 [Example 146, 7-(4-{5-[(4-fluorophenyl)methyl]-6-methylpyrimidin-4-yl}-2,3,4,5-tetrahydro-1,4-benzoxazepin-7-yl)[1,2,4]triazolo[1,5-a]pyridin-2-amine]	10 to 50
Cc1nc2ccc(-c3ccc4c(c3)CN(c3ccnc(Nc5ccccc5)n3)CCO4)cc2[nH]1 [Example 253, 4-[7-(2-methyl-1H-benzimidazol-6-yl)-2,3-dihydro-1,4-benzoxazepin-4(5H)-yl]-N-phenylpyrimidin-2-amine]	50 to 250
CC1=CC(C)(C)Cc2c1ncnc2N1CCOc2ccc(-c3cnc(N)c(S(=O)(=O)N4CC[C@@H](N)C4)c3)cc2C1 [Example 448, 3-{[(3R)-3-aminopyrrolidin-1-yl]sulfonyl}-5-[4-(6,6,8-trimethyl-5,6-dihydroquinazolin-4-yl)-2,3,4,5-tetrahydro-1,4-benzoxazepin-7-yl]pyridin-2-amine]	≤ 10
Cc1ncnc(N2CCOc3ccc(-c4ccc5sc(N)nc5c4)cc3C2)c1Cc1ccc(F)cc1 [Example 148, 5-(4-{5-[(4-fluorophenyl)methyl]-6-methylpyrimidin-4-yl}-2,3,4,5-tetrahydro-1,4-benzoxazepin-7-yl)-1,3-benzothiazol-2-amine]	≤ 10
CC1(C)CCc2ncnc(N3CCOc4ccc(-c5cnc(N)c(S(=O)(=O)N6CC(N)C6)c5)cc4C3)c2C1 [Example 443, 3-[(3-aminoazetidin-1-yl)sulfonyl]-5-[4-(6,6-dimethyl-5,6,7,8-tetrahydroquinazolin-4-yl)-2,3,4,5-tetrahydro-1,4-benzoxazepin-7-yl]pyridin-2-amine]	≤ 10
c1ccc2c(N3CCOc4ccc(-c5ccc6nc[nH]c6c5)cc4C3)ncnc2c1 [Example 123, 7-(1H-benzimidazol-6-yl)-4-quinazolin-4-yl-2,3,4,5-tetrahydro-1,4-benzoxazepine]	50 to 250
Cc1nc2ncc(-c3ccc4c(c3)CN(c3nc(CN5CCOCC5)nc5c3CC(C)(C)CC5)CCO4)cc2[nH]1 [Example 498, 4-[6,6-dimethyl-2-(morpholin-4-ylmethyl)-5,6,7,8-tetrahydroquinazolin-4-yl]-7-(2-methyl-1H-imidazo[4,5-b]pyridin-6-yl)-2,3,4,5-tetrahydro-1,4-benzoxazepine]	50 to 250
COC(=O)Nc1nc2ncc(-c3ccc4c(c3)CN(c3ncnc(C)c3Cc3ccc(F)cc3)CCO4)cc2[nH]1 [Example 175, methyl [6-(4-{5-[(4-fluorophenyl)methyl]-6-methylpyrimidin-4-yl}-2,3,4,5-tetrahydro-1,4-benzoxazepin-7-yl)-1H-imidazo[4,5-b]pyridin-2-yl]carbamate]	≤ 10
CNc1ncc(-c2ccc3c(c2)CN(c2ncnc4c2CC(C)(C)CC4)CCO3)cc1NS(C)(=O)=O [Example 627, N-{5-[4-(6,6-dimethyl-5,6,7,8-tetrahydroquinazolin-4-yl)-2,3,4,5-tetrahydro-1,4-benzoxazepin-7-yl]-2-(methylamino)pyridin-3-yl}methanesulfonamide]	50 to 250
CNC(=O)Nc1ccc(-c2ccc3c(c2)CN(c2nc(C)nc4cc(OC)ccc24)CCO3)cc1 [Example 361, 1-methyl-3-(4-{4-[2-methyl-7-(methyloxy)quinazolin-4-yl]-2,3,4,5-tetrahydro-1,4-benzoxazepin-7-yl}phenyl)urea]	≥ 2000
COC(=O)Nc1nc2ccc(-c3ccc4c(c3)CN(c3ncnc5[nH]ccc35)CCO4)cc2[nH]1 [Example 110, methyl {6-[4-(7H-pyrrolo[2,3-d]pyrimidin-4-yl)-2,3,4,5-tetrahydro-1,4-benzoxazepin-7-yl]-1H-benzimidazol-2-yl}carbamate]	≥ 2000
CC1(C)CCc2ncnc(N3CCOc4ccc(-c5cnc(N)c(S(=O)(=O)N6CCCC6)c5)cc4C3)c2C1 [Example 515, 5-[4-(6,6-dimethyl-5,6,7,8-tetrahydroquinazolin-4-yl)-2,3,4,5-tetrahydro-1,4-benzoxazepin-7-yl]-3-(pyrrolidin-1-ylsulfonyl)pyridin-2-amine]	50 to 250
CN(C)c1nc2ccc(-c3ccc4c(c3)CN(c3ccnc5ccccc35)CCO4)cc2[nH]1 [Example 195, N,N-dimethyl-6-(4-quinolin-4-yl-2,3,4,5-tetrahydro-1,4-benzoxazepin-7-yl)-1H-benzimidazol-2-amine]	1000 to 2000
Cc1ncnc(N2CCOc3ccc(-c4ccc5nc(N)sc5n4)cc3C2)c1Cc1ccc(F)cc1 [Example 140, 5-(4-{5-[(4-fluorophenyl)methyl]-6-methylpyrimidin-4-yl}-2,3,4,5-tetrahydro-1,4-benzoxazepin-7-yl)[1,3]thiazolo[5,4-b]pyridin-2-amine]	10 to 50
